Experimental data reported in PubChem BioAssay (NCI).
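Cells were grown in 96-well plates and exposed to each compound for 48 hours at five concentrations; endpoints were interpolated linearly between bracketing concentrations, or set to the highest concentration if not reached. TGI denotes the concentration required for complete inhibition of growth.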

Experiments:
Assay in all cases: NCI anticancer screen, dose series, 48 h
[1] = test system: 786-0 renal
[2] = test system: A549 NSCLC
[3] = test system: ACHN renal
[4] = test system: BT-549 breast
[5] = test system: CAKI-1 renal
[6] = test system: CCRF-CEM leukemia
[7] = test system: COLO 205 colon
[8] = test system: DU-145 prostate
[9] = test system: EKVX NSCLC
[10] = test system: HCC-2998 colon
[11] = test system: HCT-116 colon
[12] = test system: HCT-15 colon
[13] = test system: HL-60(TB) leukemia
[14] = test system: HOP-62 NSCLC
[15] = test system: HOP-92 NSCLC
[16] = test system: HS 578T breast
[17] = test system: HT29 colon
[18] = test system: IGROV1 ovarian
[19] = test system: K-562 leukemia
[20] = test system: KM12 colon
[21] = test system: LOX IMVI melanoma
[22] = test system: M14 melanoma
[23] = test system: MALME-3M melanoma
[24] = test system: MCF7 breast
[25] = test system: MDA-MB-231 breast
[26] = test system: MDA-MB-435
[27] = test system: MDA-N
[28] = test system: MOLT-4 leukemia
[29] = test system: NCI-H226 lung
[30] = test system: NCI-H23 lung
[31] = test system: NCI-H460 lung
[32] = test system: NCI-H522 lung
[33] = test system: NCI/ADR-RES ovarian
[34] = test system: OVCAR-3 ovarian
[35] = test system: OVCAR-4 ovarian
[36] = test system: OVCAR-8 ovarian
[37] = test system: PC-3 prostate
[38] = test system: RPMI-8226 leukemia
[39] = test system: RXF 393 renal
[40] = test system: SF-268 CNS
[41] = test system: SF-295 CNS
[42] = test system: SF-539 CNS
[43] = test system: SK-MEL-2 melanoma
[44] = test system: SK-MEL-28 melanoma
[45] = test system: SK-MEL-5 melanoma
[46] = test system: SK-OV-3 ovarian
[47] = test system: SN12C renal
[48] = test system: SNB-19 CNS
[49] = test system: SNB-75 CNS
[50] = test system: SR leukemia
[51] = test system: SW-620 colon
[52] = test system: T-47D breast
[53] = test system: TK-10 renal
[54] = test system: U251 CNS
[55] = test system: UACC-257 melanoma
[56] = test system: UACC-62 melanoma
[57] = test system: UO-31 renal
[58] = test system: OVCAR-5 ovarian

c1coc(C2=Nc3cccc4cccc(c34)N2)c1
TGI [1]: > 100 µM | TGI [2]: > 100 µM | TGI [3]: 57.6 µM | TGI [4]: > 100 µM | TGI [5]: > 100 µM | TGI [6]: > 100 µM | TGI [7]: 28 µM | TGI [8]: > 100 µM | TGI [9]: > 100 µM | TGI [10]: > 100 µM | TGI [11]: 56.3 µM | TGI [12]: > 100 µM | TGI [13]: 65.4 µM | TGI [14]: > 100 µM | TGI [15]: 60.5 µM | TGI [16]: > 100 µM | TGI [17]: 57.3 µM | TGI [18]: > 100 µM | TGI [19]: > 100 µM | TGI [20]: 40.8 µM | TGI [21]: > 100 µM | TGI [22]: > 100 µM | TGI [23]: > 100 µM | TGI [24]: > 100 µM | TGI [25]: > 100 µM | TGI [26]: > 100 µM | TGI [27]: > 100 µM | TGI [28]: > 100 µM | TGI [29]: > 100 µM | TGI [30]: > 100 µM | TGI [31]: > 100 µM | TGI [32]: 23.2 µM | TGI [33]: 44.4 µM | TGI [34]: 65.4 µM | TGI [35]: 84.9 µM | TGI [36]: > 100 µM | TGI [37]: 80.8 µM | TGI [38]: > 100 µM | TGI [39]: 76.9 µM | TGI [40]: > 100 µM | TGI [41]: > 100 µM | TGI [42]: 39.3 µM | TGI [43]: > 100 µM | TGI [44]: > 100 µM | TGI [45]: > 100 µM | TGI [46]: > 100 µM | TGI [47]: > 100 µM | TGI [48]: > 100 µM | TGI [49]: > 100 µM | TGI [50]: > 100 µM | TGI [51]: > 100 µM | TGI [52]: 23 µM | TGI [53]: > 100 µM | TGI [54]: > 100 µM | TGI [55]: > 100 µM | TGI [56]: > 100 µM | TGI [57]: 64.7 µM

COc1ccc(/C=C2\Oc3cc(OC(C)=O)ccc3C2=O)cc1
TGI [1]: > 100 µM | TGI [2]: > 100 µM | TGI [3]: > 100 µM | TGI [4]: > 100 µM | TGI [5]: 86.7 µM | TGI [6]: > 100 µM | TGI [7]: > 100 µM | TGI [8]: > 100 µM | TGI [9]: > 100 µM | TGI [10]: > 100 µM | TGI [11]: > 100 µM | TGI [12]: > 100 µM | TGI [13]: > 100 µM | TGI [14]: > 100 µM | TGI [16]: > 100 µM | TGI [18]: > 100 µM | TGI [19]: > 100 µM | TGI [20]: > 100 µM | TGI [22]: > 100 µM | TGI [24]: > 100 µM | TGI [25]: > 100 µM | TGI [26]: > 100 µM | TGI [27]: > 100 µM | TGI [28]: > 100 µM | TGI [29]: > 100 µM | TGI [30]: > 100 µM | TGI [31]: > 100 µM | TGI [32]: 45.1 µM | TGI [33]: > 100 µM | TGI [34]: > 100 µM | TGI [35]: > 100 µM | TGI [36]: > 100 µM | TGI [37]: > 100 µM | TGI [38]: > 100 µM | TGI [39]: > 100 µM | TGI [40]: > 100 µM | TGI [41]: > 100 µM | TGI [42]: > 100 µM | TGI [44]: > 100 µM | TGI [45]: > 100 µM | TGI [46]: > 100 µM | TGI [47]: > 100 µM | TGI [48]: > 100 µM | TGI [49]: > 100 µM | TGI [50]: > 100 µM | TGI [51]: > 100 µM | TGI [52]: > 100 µM | TGI [53]: > 100 µM | TGI [54]: > 100 µM | TGI [55]: > 100 µM | TGI [56]: > 100 µM | TGI [57]: > 100 µM

CC1=CC(C)(C)[C@H]2O[C@@]3(O)C[C@]4(C)[C@H]5C[C@@](C(C)C)(O[C@H]4c4ccoc4)O[C@H]4[C@]5(C3)O[C@@]1(O)[C@]24O
TGI [1]: > 100 µM | TGI [2]: > 100 µM | TGI [3]: > 100 µM | TGI [4]: > 100 µM | TGI [5]: > 100 µM | TGI [6]: > 100 µM | TGI [7]: > 100 µM | TGI [8]: > 100 µM | TGI [9]: > 100 µM | TGI [10]: > 100 µM | TGI [11]: > 100 µM | TGI [12]: > 100 µM | TGI [13]: > 100 µM | TGI [14]: 82 µM | TGI [15]: > 100 µM | TGI [16]: > 100 µM | TGI [17]: > 100 µM | TGI [18]: > 100 µM | TGI [19]: > 100 µM | TGI [20]: > 100 µM | TGI [21]: > 100 µM | TGI [22]: > 100 µM | TGI [23]: > 100 µM | TGI [24]: > 100 µM | TGI [25]: > 100 µM | TGI [26]: > 100 µM | TGI [27]: > 100 µM | TGI [28]: > 100 µM | TGI [29]: > 100 µM | TGI [30]: > 100 µM | TGI [32]: 45.8 µM | TGI [33]: > 100 µM | TGI [34]: > 100 µM | TGI [35]: > 100 µM | TGI [58]: > 100 µM | TGI [36]: > 100 µM | TGI [37]: > 100 µM | TGI [38]: > 100 µM | TGI [39]: > 100 µM | TGI [40]: > 100 µM | TGI [41]: > 100 µM | TGI [42]: > 100 µM | TGI [43]: > 100 µM | TGI [44]: > 100 µM | TGI [45]: > 100 µM | TGI [46]: > 100 µM | TGI [47]: > 100 µM | TGI [48]: > 100 µM | TGI [49]: 64.6 µM | TGI [50]: > 100 µM | TGI [51]: > 100 µM | TGI [52]: > 100 µM | TGI [53]: > 100 µM | TGI [54]: > 100 µM | TGI [55]: > 100 µM | TGI [56]: > 100 µM | TGI [57]: > 100 µM
